Earlier results, collected in patent publication US20200357489A1, “DEEP LEARNING-BASED QUICK AND PRECISE HIGH-THROUGHPUT DRUG SCREENING SYSTEM” (Shanghai Tongji Hospital, priority 2018, published 2020).
Read-outs that look alike come from different tables or passages of the source.

Row | Structure (SMILES) | efficacy classification (A549 cells; 50 μg/ml VP16) | efficacy classification (A549 cells; 100 μg/ml VP16) | efficacy classification (A549 cells; 200 μg/ml VP16) | efficacy classification (HepG2 cells; 5 μg/ml Cur) | efficacy classification (HepG2 cells; 10 μg/ml Cur) | efficacy classification (HepG2 cells; 20 μg/ml Cur)
1 | COc1cc([C@@H]2c3cc4c(cc3[C@@H](O[C@@H]3O[C@@H]5CO[C@@H](C)O[C@H]5[C@H](O)[C@H]3O)[C@H]3COC(=O)[C@H]23)OCO4)cc(OC)c1O [VP16, etoposide] | Low effcacy | Moderate | High efficacy |  |  | 
2 | COc1cc(/C=C/C(=O)CC(=O)/C=C/c2ccc(O)c(OC)c2)ccc1O [Cur, curcumin] |  |  |  | Low effcacy | Moderate | High efficacy
